Test results as given in patent US7005447B2, “Food product comprising hydroxymatairesinol” (Hormos Nutraceutical Oy Ltd., priority 1999, dated 2006).
pIC50: −log10 of the molar value. Read-outs that look alike come from different tables or passages of the source. Blank lines part the entries; values can stand above or below the compound they belong to.

Experiments:
[1] = tested on: tert-butylhydroperoxide-induced lipid peroxidation (t-BuOOH-LP) in rat liver microsomes; assay: Inhibition of tert-butylhydroperoxide-induced lipid peroxidation (t-BuOOH-LP), chemiluminescence; format: biochemical
Procedure: Inhibition of lipid peroxidation was evaluated on the basis of their potency to inhibit tert-butylhydroperoxide-induced lipid peroxidation (t-BuOOH-LP) in rat liver microsomes in vitro (Ahotupa et al. 1997). The test for the t-BuOOH-LP was carried out as follows: The buffer (50 mM sodium carbonate, pH 10.2, with 0.1 mM EDTA) was pipetted in a volume of 0.8 ml in the luminometer cuvette. Twenty microliters of diluted liver microsomes, final concentration 1.5 mg protein/ml, was added, followed by […] of luminol (0.5 mg/ml) and test chemicals. The test compounds were added to incubation mixtures in a small volume diluted in ethanol or dimethylsulphoxide (2% of incubation volume), and the lipid peroxidation potency was compared to that of the vehicle (ethanol or dimethyl sulphoxide). The reaction was initiated by 0.05 ml of 0.9 mM t-BuOOH at 33° C. Chemiluminescence was measured for about 45 min at 1 min cycles, and the area under curve (integral) was calculated. Chemiluminescence measurements were carried out using a Bio-Orbit 1251 Luminometer (Bio-Orbit, Turku, Finland) connected to a personal computer using dedicated software for the assays.

[2] = Superoxide anion scavenging (xanthine-xanthine oxidase system, chemiluminescence); format: biochemical; conditions: read-out: Superoxide anion scavenging, IC-50
Procedure: Superoxide anion scavenging method was based on the superoxide anion produced in controlled conditions by xanthine-xanthine oxidase system and detection of the generated reactive oxygen species by luminometer (Ahotupa et al., 1997). The ability of test compounds to decrease the chemiluminescence was evaluated. IC-50 concentration (concentration which prevented the chemiluminescence by 50%) was calculated.

aromatase = molecular target: T1, aromatase (Homo sapiens, UniProt P11511); assay: Aromatase inhibiting capacity in JEG-3 cells (3H-17β-estradiol formation from 3H-androstenedione); format: cell-based; conditions: 4 h incubation, FIG. 1
T1 construct: 800 μl cell suspension (1 million cells); endogenous in cells; host or cells: JEG-3 human choriocarcinoma cells
T1 sequence (P11511 1-503): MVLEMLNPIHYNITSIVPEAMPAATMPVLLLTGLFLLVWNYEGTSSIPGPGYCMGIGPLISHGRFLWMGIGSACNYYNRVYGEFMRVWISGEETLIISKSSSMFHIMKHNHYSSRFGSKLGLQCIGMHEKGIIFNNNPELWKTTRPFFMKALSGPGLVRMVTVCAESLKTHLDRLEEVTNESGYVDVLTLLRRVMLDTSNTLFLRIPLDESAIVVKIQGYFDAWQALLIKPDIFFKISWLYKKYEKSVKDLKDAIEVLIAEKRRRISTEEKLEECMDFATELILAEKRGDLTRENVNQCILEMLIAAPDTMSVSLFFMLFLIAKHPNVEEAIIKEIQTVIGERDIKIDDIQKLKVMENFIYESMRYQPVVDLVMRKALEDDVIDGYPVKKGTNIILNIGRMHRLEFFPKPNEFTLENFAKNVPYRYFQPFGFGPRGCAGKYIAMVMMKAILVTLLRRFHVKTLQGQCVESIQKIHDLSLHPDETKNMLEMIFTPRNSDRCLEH
Procedure: The effects of HMR and structurally related lignans (enterolactone, enterodiol and 7-hydroxyenterolactone) were studied on formation of ^3H-17β-estradiol from ^3H-andostenedione in JEG-3 cells, human choriocarcinoma cell line. […] Cells were maintained in DMEM containing 10% fetal calf serum (FCS). The incubation mixture contained 50 μl ^3H-androst-4-ene, 3,17-dione (0.5 nM), 50 μl unlabelled androstenedione (0.5 nM), 100 μl test compounds (10 mM) and 800 μl cell suspension (1 million cells). After the incubation for 4 h, unlabelled carriers (androstenedione, testosterone, 17β-estradiol and estrone) were added. The steroids were extracted twice with 3.0 ml dichloromethane. […] The column system consisted of a guard column followed by a C18 150×3.9 mm ID analytical column (Technopak 10 C18 HPLC Technology; Wellington House, Cheshire, UK). The mobile phase was acetonitrile/water (35/65) and the flow rate was 1.2 ml/min. For in-line detection of the radioactive metabolites, the eluent of the HPCL column was continuously mixed with liquid scintillant and then monitored with in-line radioactivity detector.

MCF-7 cells = conditions: Mousavi and Adlercreutz 1992; cited from earlier work
mouse uterine weight = conditions: Setchell et al. 1981; cited from earlier work
[3] = tested on: antiestrogen-sensitive DMBA-induced breast cancer; conditions: supplementation of a high-fat diet, rat; Serraino and Thompson, Thompson et al.; cited from earlier work
[4] = tested on: chemically induced aberrant crypts in rat colon; conditions: diet supplementation; Serraino and Thompson 1992, Jenab and Thompson 1996; cited from earlier work
uterine weight = conditions: feeding during pregnancy and lactation to rats; effect not evident at later stages; Tou et al. 1998; cited from earlier work
[5] = tested on: uterine growth of immature rats; assay: Immature rat uterotropic test; format: in vivo; conditions: methodological control for non-estrogen-stimulated uterus
Procedure: The estrogenicity HMR was evaluated by the uterotropic assay in immature rats which was performed as described earlier (Jordan et al. 1977), with the exception of treatment time which was 7 days instead of 3 days in the reference study. The treatment time was longer because of the expected weak estrogenicity of the test compound. The treatment of immature rats with an aromatase inhibitor (MPV-2213 ad), which prevents biosynthesis of estradiol, was used as a methodological control for non-estrogen-stimulated uterus.

[6] = tested on: low density lipoprotein (LDL) oxidation; assay: Inhibition of LDL oxidation (CuCl2-induced, absorbance at 234 nm); format: biochemical; conditions: CuCl2, 3 hrs at +37° C.; read-out: Inhibition of LDL oxidation, IC-50
Procedure: Inhibition of LDL oxidation was estimated as described by Ahotupa et al, 1996. Shortly: LDL was isolated by precipitation with buffered heparin. After resuspendation in phosphate buffer, 20 mM CuCl2 was added and the mixture was incubated for 3 hrs at +37° C. After this, LDL lipids were extracted with chloroform-methanol, dried under nitrogen, redissolved in cyclohexane and analyzed spectrophotometrically at 234 nm. The intensity of absorbance is indicative of LDL oxidation. To test the ability of different compounds to prevent LDL oxidation, the compounds were added to the incubation mixture prior addition of CuCl2. Possible interference of test compounds with the assay procedure was excluded by measuring the absorption at 234 nm before and after the incubation period.

[7] = lipid peroxidation inhibition test, rat liver microsomes, Table 2, read-out: Antioxidative capacity (t-BuOOH-LP) IC50
[8] = Table 3 comparison with known antioxidants, read-out: Inhibition of lipid peroxidation, IC-50

pIC50 [1, 7]: 6.40
Compound: O=c1c(O)c(-c2ccc(O)c(O)c2)oc2cc(O)cc(O)c12 [quercetin, 3,3′,4′,5,7-pentahydroxy-flavone]

pIC50 [1, 8]: 4.82 | IC50 ([2]; value in mM): > 1 mM
Compound: Cc1cc(C(C)(C)C)c(O)c(C(C)(C)C)c1 [BHT, Butylated hydroxytoluene]

Compound: O=C1OCC(Cc2cccc(O)c2)C1Cc1cccc(O)c1 (stereo not drawn) [enterolactone, 2,3-bis-(3′-hydroxybenzyl)-butyrolactone]
pIC50 [1, 7]: 4.80 | Inhibition of aromatization (3H-17β-estradiol formation from 3H-androstenedione) (aromatase): dose-dependent inhibition | Estrogenic potency in MCF-7 cells (MCF-7 cells): weak estrogenic potency | Estrogenic response in mouse uterine weight (mouse uterine weight): no estrogenic response

Compound: COc1ccc(O)c(C(C)(C)C)c1 [BHA, Butylated hydroxyanisol]
pIC50 [1, 8]: 5.96 | pIC50 [2]: 4.82

Compound: secoisolariciresinol-diglycoside [SDG]
Development of DMBA-induced breast cancer [3]: prevented the development | Formation of chemically induced aberrant crypts in rat colon [4]: inhibited the formation | Uterine weight (uterine weight): increased the uterine weight at weaning

pIC50 [1, 7]: 6.30
Compound: COc1ccc(-c2oc3cc(O)cc(O)c3c(=O)c2O)cc1 [kaempferide, 3,5,7-trihydroxy-4′-methoxy-flavone]

Inhibition of aromatization (3H-17β-estradiol formation from 3H-androstenedione) (aromatase): no inhibitory effects
Compound: O=C1OC[C@H](Cc2cccc(O)c2)[C@H]1[C@@H](O)c1cccc(O)c1 [7-hydroxyenterolactone]

Compound: N#Cc1ccc(C(C(O)Cc2ccc(F)cc2)n2cncn2)cc1 (stereo not drawn) [MPV-2213 ad, reference compound]
Effect on increase of uterine weight [5]: prevented the increase of uterine weight

pIC50 [1, 8]: 7.70 | pIC50 [6]: 5.57 | pIC50 [2]: 4.60
Compound: Cc1c(C)c2c(c(C)c1O)CCC(C)(C(=O)O)O2 (stereo not drawn) [TROLOX]

pIC50 [1, 7]: 6.05
Compound: O=c1c(O)c(-c2ccc(O)cc2)oc2cc(O)cc(O)c12 [kaempferol, 3,4′,5,7-tetrahydroxy-flavone]

Compound: OCC(Cc1cccc(O)c1)C(CO)Cc1cccc(O)c1 (stereo not drawn) [enterodiol, 2,3-bis-(3′-hydroxybenzyl)-butane-1,4-diol]
pIC50 [1, 7]: 4.90 | Inhibition of aromatization (3H-17β-estradiol formation from 3H-androstenedione) (aromatase): noninhibitory
